A word on the IC50: it is the point on the concentration scale where inhibition reaches its midpoint. The low end stands for inhibition by little substance, the high end for a need for much substance.

We go through 27 compounds from patent US20160287589A1, “SUBSTITUTED-IMIDAZOPYRIDAZINES” (BAYER PHARMA AKTIENGESELLSCHAFT, priority 2013, published 2016).

For test [1], the target named is T1, MKNK1 (Homo sapiens, UniProt Q9BUB5, T385D).
T1 construct: GST (N); purchased Carna Biosciences 02-145; host or cells: insect cells (baculovirus expression system)
T1 sequence (Q9BUB5 1-424 isoform Q9BUB5-2 T344D): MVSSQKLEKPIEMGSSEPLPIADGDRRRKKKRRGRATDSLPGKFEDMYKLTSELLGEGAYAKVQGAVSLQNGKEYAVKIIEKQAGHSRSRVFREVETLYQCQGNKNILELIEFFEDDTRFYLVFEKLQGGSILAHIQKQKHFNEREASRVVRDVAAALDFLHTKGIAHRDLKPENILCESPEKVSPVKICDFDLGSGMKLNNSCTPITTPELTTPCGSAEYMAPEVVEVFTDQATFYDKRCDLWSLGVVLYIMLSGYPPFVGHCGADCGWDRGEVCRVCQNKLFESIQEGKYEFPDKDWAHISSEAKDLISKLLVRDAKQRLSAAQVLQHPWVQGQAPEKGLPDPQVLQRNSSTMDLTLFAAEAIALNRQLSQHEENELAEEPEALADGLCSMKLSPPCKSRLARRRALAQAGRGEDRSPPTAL
Briefly: MKNK1 kinase high ATP assay (TR-FRET-based). Type of test: biochemical. To be noted: 2 mM ATP, 15 min preincubation. In outline:
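TR-FRET read-out (anti-phospho-S6 Ser236 antibody, Eu/XL665) of biotin-peptide phosphorylation (0.06 μM) at high ATP (2 mM final). Enzyme was GST-MKNK1 full length, T344D, pre-bound to compound for 15 min before a 30 min reaction at 22 °C, pH 7.5. Inhibition scaled between no-inhibitor (0%) and no-enzyme (100%) wells.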

Test [2] concerns the target T1, MKNK1. Briefly: MKNK1 kinase assay (MKNK1 TR-FRET assay). Type of test: biochemical. As to conditions: 10 μM ATP, 15 min preincubation. On the technique in general: TR-FRET usually uses a lanthanide donor and a delayed reading to cut background.

Turning to `CCCN(CCOC)c1nccc2oc(-c3cnc4ccc(O[C@H](C)CN)nn34)cc12` [III-33, 2-(6-{[(2R)-1-Aminopropan-2-yl]oxy}imidazo[1,2-b]pyridazin-3-yl)-N-(2-methoxyethyl)-N-propylfuro[3,2-c]pyridin-4-amine], the IC50 on MKNK1 [1] (Table 2c) turned out to be 1.3 nM; against MKNK1 [2] (Table 1c), 1.1 nM.

For the compound `O=C(NCCOc1ccc2ncc(-c3cc4ccccc4o3)n2n1)C1CCCO1` (stereo not drawn) [Example I-78, N-(2-{[3-(1-Benzofuran-2-yl)imidazo[1,2-b]-pyridazin-6-yl]oxy}ethyl)tetrahydrofuran-2-carboxamide], the IC50 on MKNK1 [1] (Table 2a) amounted to 23 nM; at MKNK1 [2] (Table 1a), 6.7 nM.

As to `C[C@H]1CN(c2cccc3oc(-c4cnc5ccc(OC[C@@H]6CCC(=O)N6)nn45)cc23)CCO1` [II-68, (5S)-5-{[(3-{4-[(2S)-2-methylmorpholin-4-yl]-1-benzofuran-2-yl}imidazo[1,2-b]pyridazin-6-yl)oxy]methyl}pyrrolidin-2-one], the IC50 at MKNK1 [1] (Table 2b) stood at 30.4 nM; against MKNK1 [2] (Table 1b) it was 23.2 nM.

For the compound `COc1nccc2oc(-c3cnc4ccc(OC[C@H]5CN(C(=O)C(C)(C)C)CCO5)nn34)cc12` [IV-11, 1-[(2R)-2-({[3-(4-Methoxyfuro[3,2-c]pyridin-2-yl)imidazo[1,2-b]pyridazin-6-yl]oxy}-methyl)morpholin-4-yl]-2,2-dimethylpropan-1-one], the figures for the IC50 at MKNK1 [1] (Table 2d) and on MKNK1 [2] (Table 1d) were 25 nM and 6 nM, respectively.

As for `C[C@H](N)COc1ccc2ncc(-c3cc4c(N5CCN(C(C)(C)C)CC5)nccc4o3)n2n1` [III-116, (2S)-1-({3-[4-(4-tert-butylpiperazin-1-yl)furo[3,2-c]pyridin-2-yl]imidazo[1,2-b]pyridazin-6-yl}oxy)propan-2-amine], the IC50 on MKNK1 [1] (Table 2c) stood at 114 nM; on MKNK1 [2] (Table 1c), 27 nM.

`CC(C)CC(=O)N1CCC[C@H]1CCOc1ccc2ncc(-c3cc4ccccc4o3)n2n1` [Example I-60, 1-[(2S)-2-(2-{[3-(1-Benzofuran-2-yl)imidazo[1,2-b]-pyridazin-6-yl]oxy}ethyl)pyrrolidin-1-yl]-3-methylbutan-1-one]: the figures for the IC50 at MKNK1 [1] (Table 2a) and at MKNK1 [2] (Table 1a) were 5.4 nM and 2.2 nM, respectively.

On to `CN(C)[C@H]1CCN(c2nccc3oc(-c4cnc5ccc(OC[C@H]6CCC(=O)N6)nn45)cc23)C1` [III-75, (5R)-5-{[(3-{4-[(3S)-3-(Dimethylamino)pyrrolidin-1-yl]furo[3,2-c]pyridin-2-yl}imidazo[1,2-b]pyridazin-6-yl)oxy]methyl}pyrrolidin-2-one], for which the IC50 at MKNK1 [1] (Table 2c) was 1.7 nM; at MKNK1 [2] (Table 1c) it was 0.8 nM.

Consider `CC(C)(C)N1CCN(c2nccc3oc(-c4cnc5ccc(OC[C@H]6CCC(=O)N6)nn45)cc23)CC1` [III-63, (5R)-5-[({3-[4-(4-tert-Butylpiperazin-1-yl)furo[3,2-c]pyridin-2-yl]imidazo-[1,2-b]pyridazin-6-yl}oxy)methyl]pyrrolidin-2-one], for which the values for the IC50 on MKNK1 [1] (Table 2c) and against MKNK1 [2] (Table 1c) were 12.6 nM and 4.3 nM, respectively.

As for `CC1(C)CN(c2cccc3oc(-c4cnc5ccc(OC[C@@H]6CCC(=O)N6)nn45)cc23)CCN1` [II-36, (5S)-5-[({3-[4-(3,3-dimethylpiperazin-1-yl)-1-benzofuran-2-yl]imidazo[1,2-b]pyridazin-6-yl}oxy)methyl]pyrrolidin-2-one], the IC50 was determined as 1 nM on MKNK1 [1] (Table 2b) and 2.3 nM at MKNK1 [2] (Table 1b).

As for `Cc1cccc(C(=O)NCCOc2ccc3ncc(-c4cc5ccccc5o4)n3n2)c1` [Example I-69, N-(2-{[3-(1-Benzofuran-2-yl)imidazo[1,2-b]-pyridazin-6-yl]oxy}ethyl)-3-methylbenzamide], the values for the IC50 on MKNK1 [1] (Table 2a) and at MKNK1 [2] (Table 1a) were 36.9 nM and 13.7 nM, respectively.

On to `CCN(CCOC)c1nccc2oc(-c3cnc4ccc(OC[C@@H]5CCCN5)nn34)cc12` [III-139, N-ethyl-N-(2-methoxyethyl)-2-{6-[(2S)-pyrrolidin-2-ylmeth-oxy]imidazo[1,2-b]pyridazin-3-yl}furo[3,2-c]pyridin-4-amine], for which the IC50 against MKNK1 [1] (Table 2c) worked out at 1.7 nM; against MKNK1 [2] (Table 1c), 3 nM.

On to `COC[C@H]1CCCN1c1cccc2oc(-c3cnc4ccc(OC[C@H]5CNCCO5)nn34)cc12` [II-7, 3-{4-[(2R)-2-(Methoxymethyl)pyrrolidin-1-yl]-1-benzofuran-2-yl}-6-[(2R)-morpholin-2-ylmethoxy]imidazo[1,2-b]pyridazine], for which the IC50 on MKNK1 [1] (Table 2b) amounted to 4.2 nM; on MKNK1 [2] (Table 1b), 6.3 nM.

In the case of `C[C@@H]1COCCN1c1cccc2oc(-c3cnc4ccc(OC[C@@H]5CCC(=O)N5)nn34)cc12` [II-51, (5S)-5-{[(3-{4-[(3R)-3-methylmorpholin-4-yl]-1-benzofuran-2-yl}imidazo[1,2-b]pyridazin-6-yl)oxy]methyl}pyrrolidin-2-one], the IC50 on MKNK1 [1] (Table 2b) was 50.8 nM; against MKNK1 [2] (Table 1b) it was 2.8 nM.

With `CCN(CCOC)c1nccc2oc(-c3cnc4ccc(OC[C@@H](C)N)nn34)cc12` [III-4, 2-(6-{[(2R)-2-Aminopropyl]oxy}imidazo[1,2-b]pyridazin-3-yl)-N-ethyl-N-(2-methoxyethyl)furo[3,2-c]pyridin-4-amine], the IC50 against MKNK1 [1] (Table 2c) is 0.4 nM; against MKNK1 [2] (Table 1c), 0.6 nM.

`C[C@@H]1CN(c2nccc3oc(-c4cnc5ccc(O[C@H]6C[C@H](N)C6)nn45)cc23)CCO1` [III-122, trans-3-[(3-{4-[(2R)-2-methylmorpholin-4-yl]furo[3,2-c]pyridin-2-yl}imidazo[1,2-b]pyridazin-6-yl)oxy]cyclobutanamine]: the figures for the IC50 on MKNK1 [1] (Table 2c) and on MKNK1 [2] (Table 1c) were 13 nM and 12.3 nM, respectively.

`COc1cccc2oc(-c3cnc4ccc(OCCN5CCNC5=O)nn34)cc12` [Example I-12, 1-(2-{[3-(4-methoxy-1-benzofuran-2-yl)imidazo[1,2-b]pyridazin-6-yl]oxy}ethyl)-imidazolidin-2-one]: the IC50 was determined as 10.2 nM on MKNK1 [1] (Table 2a) and 3.5 nM against MKNK1 [2] (Table 1a).

For the compound `C[C@H](N)COc1ccc2ncc(-c3cc4c(N5CCO[C@H](C)C5)nccc4o3)n2n1` [III-117, (2S)-1-[(3-{4-[(2R)-2-methylmorpholin-4-yl]furo[3,2-c]pyridin-2-yl}imidazo[1,2-b]pyridazin-6-yl)oxy]propan-2-amine], the values for the IC50 against MKNK1 [1] (Table 2c) and against MKNK1 [2] (Table 1c) were 39.9 nM and 21.5 nM, respectively.

In the case of `CN(CCCO)c1nccc2oc(-c3cnc4ccc(OCCCS(C)(=O)=O)nn34)cc12` [III-54, 3-[Methyl(2-{6-[3-(methylsulfonyl)propoxy]imidazo[1,2-b]pyridazin-3-yl}furo[3,2-c]pyridin-4-yl)amino]propan-1-ol], the results for the IC50 at MKNK1 [1] (Table 2c) and on MKNK1 [2] (Table 1c) were 6.2 nM and 2.8 nM, respectively.

As to `CC1(C)CN(c2cccc3oc(-c4cnc5ccc(OCCCS(C)(=O)=O)nn45)cc23)CCN1` [II-55, 3-[4-(3,3-dimethylpiperazin-1-yl)-1-benzofuran-2-yl]-6-[3-(methylsulfonyl)propoxy]im-idazo[l,2-b]pyridazine], the IC50 at MKNK1 [1] (Table 2b) worked out at 1.4 nM; on MKNK1 [2] (Table 1b), 3.5 nM.

As for `C[C@H](N)COc1ccc2ncc(-c3cc4c(N(C)CCCO)nccc4o3)n2n1` [III-20, 3-{[2-(6-{[(2S)-2-Aminopropyl]oxy}imidazo[1,2-b]pyridazin-3-yl)furo[3,2-c]pyridin-4-yl](methyl)amino}propan-1-ol], the IC50 came out at 10.5 nM on MKNK1 [1] (Table 2c) and 3.9 nM against MKNK1 [2] (Table 1c).

As to `CCN(CCO)c1nccc2oc(-c3cnc4ccc(OC[C@@H]5COCCN5)nn34)cc12` [III-40, 2-[Ethyl(2-{6-[(3S)-morpholin-3-ylmethoxy]imidazo[1,2-b]pyridazin-3-yl}furo[3,2-c]pyridin-4-yl)amino]ethanol], the IC50 on MKNK1 [1] (Table 2c) stood at 2.6 nM; against MKNK1 [2] (Table 1c) it was 1.5 nM.

In the case of `C[C@H](N)COc1ccc2ncc(-c3cc4c(N5CCN(c6ccccc6)CC5)cccc4o3)n2n1` [II-15, (2S)-1-({3-[4-(4-Phenylpiperazin-1-yl)-1-benzofuran-2-yl]imidazo[1,2-b]-pyridazin-6-yl}oxy)propan-2-amine], the IC50 against MKNK1 [1] (Table 2b) was 137 nM; at MKNK1 [2] (Table 1b) it was 59 nM.

As for `COc1ccc2ncc(-c3cc4c(N5CCN[C@H](C)C5)cccc4o3)n2n1` [II-39, 6-methoxy-3-{4-[(3R)-3-methylpiperazin-1-yl]-1-benzofuran-2-yl}imidazo[1,2-b]pyridazine], the values for the IC50 against MKNK1 [1] (Table 2b) and against MKNK1 [2] (Table 1b) were 1.1 nM and 1.6 nM, respectively.

`COC[C@H]1CCCN1c1cccc2oc(-c3cnc4ccc(OC[C@H]5CNCC(=O)N5)nn34)cc12` [II-48, (6R)-6-{[(3-{4-[(2R)-2-(methoxymethyl)pyrrolidin-1-yl]-1-benzofuran-2-yl}imidazo[1,2-b]pyridazin-6-yl)oxy]methyl}piperazin-2-one]: the figures for the IC50 on MKNK1 [1] (Table 2b) and at MKNK1 [2] (Table 1b) were 3.9 nM and 7 nM, respectively.

With `CCNc1nccc2oc(-c3cnc4ccc(OC[C@H]5CCC(=O)N5)nn34)cc12` [IV-14, (5R)-5-[({3-[4-(Ethylamino)furo[3,2-c]pyridin-2-yl]imidazo[1,2-b]pyridazin-6-yl}oxy)methyl]pyrrolidin-2-one], the IC50 on MKNK1 [1] (Table 2d) turned out to be 2 nM; on MKNK1 [2] (Table 1d), 1 nM.

`C[C@@H]1COCCN1c1nccc2oc(-c3cnc4ccc(OC[C@@H](C)N)nn34)cc12` [III-3, (2R)-1-[(3-{4-[(3R)-3-Methylmorpholin-4-yl]furo[3,2-c]pyridin-2-yl}imidazo-[1,2-b]pyridazin-6-yl)oxy]propan-2-amine]: the IC50 on MKNK1 [1] (Table 2c) was found to be 11.7 nM; against MKNK1 [2] (Table 1c), 6.7 nM.

With `CCN(CCOC)c1nccc2oc(-c3cnc4ccc(OC[C@H]5COCCN5)nn34)cc12` [III-38, N-Ethyl-N-(2-methoxyethyl)-2-{6-[(3R)-morpholin-3-ylmethoxy]imidazo[1,2-b]pyridazin-3-yl}furo[3,2-c]pyridin-4-amine], the IC50 at MKNK1 [1] (Table 2c) is 4.8 nM; on MKNK1 [2] (Table 1c), 0.5 nM.
